# Test results: publication PMC6359675, “Functionalization of the Chalcone Scaffold for the Discovery of Novel Lead Compounds Targeting Fungal Infections” (Molecules, 2019)
# Where “and” joins values, the source holds several entries; their conditions need not be identical. Identical values can stand only once. Like-named read-outs stand apart in the source and are kept apart here.
# Assays:
# [1] = test system: C. lusitaniae; assay: In vitro susceptibility testing, C. lusitaniae clinical isolate; type: cell-based; settings: Clavispora lusitaniae; clinical isolate; read-out: IC50 C. lusitaniae
# Source text: (§1) The yeasts included in the present study were Candida albicans ATCC 10231 (American Type Culture Collection) and a collection of yeasts recovered from a variety of clinical specimens, i.e., blood, urine, genital swabs, bronchoalveolar lavage, nail specimens, collected at the Microbiology Unit, St. Orsola Malpighi University Hospital, Bologna, Italy. The clinical strain isolates were identified by standard procedures, including colony morphology on chromogenic agar (CHROMagar Candida medium, Becton Dickinson, Heidelberg, Germany) and confirmed by MALDI Biotyper System using matrix-assisted laser desorption ionization–time of flight mass spectrometry (MALDI-TOF MS, Bruker Daltonik, GmbH, Germany).
# (§2) The in vitro antifungal activity of the chalcones was evaluated by a microdilution broth method in accordance with the guidelines provided by the EUCAST Edef 7.3 [22]. Briefly, all strains were cultured on Sabauraud dextrose, then inocula, prepared at 0.5 McFarland, were diluted 1:20 in RPMI-1640 medium (Gibco®, ThermoFisher Scientific Inc., Waltham, MA, USA), containing glucose 2%, 0.3% levo-glutamine buffered to pH 7.0 with 0.165 M 3-(N-morpholino)propanesulfonic acid (MOPS) to yield 1-5 × 10^5 cells/mL. A total of 100 µL of the yeast suspension was inoculated in a 96-well microplate and incubated with 100 µL of serially 2-fold dilution of the compound in the range 200–6.25 µM. The following controls were included: yeast suspensions incubated in RPMI-1640 culture medium (positive growth control), or supplemented with dilutions of DMSO, or fluconazole (Sigma-Aldrich, St. Louis, MO, USA) as a commercial drug. To check the background turbidity of reagents and the sterility of the procedure, dilutions of each compound were incubated in RPMI-1640 culture medium, without yeast inoculum. The inoculated plate was incubated at 37 °C for 24 h, and subsequently the optical density at 630 nm was measured by the Multiskan Ascent microplate reader (Thermo Fisher Scientific Inc.). The effectiveness of the compounds was expressed as percent inhibition relative to the positive growth control when the inhibition […] the 50% at 100 µM. The IC50 value was determined by interpolation of the dose–response curves generated by plotting the percentages of growth inhibition, relative to the drug-free control (set to 100% of growth), as a function of the tested concentrations (on a logarithm scale). Statistical analysis was carried out by the nonlinear regression method using GraphPad Prism version 5.0 for Windows (GraphPad Software, San Diego, CA, USA). All assays were performed in triplicate and at least two independent experiments were carried out.
# [2] = test system: C. parapsilosis; assay: In vitro susceptibility testing, C. parapsilosis clinical isolate; type: cell-based; settings: Lodderomyces parapsilosis; clinical isolate; read-out: IC50 C. parapsilosis
# Source text: as §1, §2
# [3] = test system: C. albicans ATCC 10231; assay: Agar-invasive hyphal growth (Spider agar assay); type: cell-based, Candida albicans; settings: compounds at IC50 values, three days at 37 °C
# Experimental: Aliquots (2 µL) of a suspension of C. albicans ATCC 10231 (5 × 10^5 cells/mL) were spotted onto medium in triplicate and the morphology of growing colonies was observed following three days of incubation at 37 °C. Spider agar plates without chalcones, containing DMSO, served as the control. The presence of filaments at the colony edges was determined using a light microscope under 10× magnification.
# [4] = test system: S. clavata; assay: In vitro susceptibility testing, S. clavata clinical isolate; type: cell-based; settings: clinical isolate; read-out: IC50 S. clavata
# Source text: as §1, §2
# [5] = test system: R. mucilaginosa; assay: In vitro susceptibility testing, R. mucilaginosa clinical isolate; type: cell-based; settings: clinical isolate; read-out: IC50 R. mucilaginosa
# Source text: as §1, §2
# [6] = test system: C. utilis; assay: In vitro susceptibility testing, C. utilis clinical isolate; type: cell-based; settings: Williopsis jadinii; clinical isolate; read-out: IC50 C. utilis
# Source text: as §1, §2
# [7] = test system: C. albicans ATCC 10231; assay: In vitro susceptibility testing, microdilution broth (EUCAST), C. albicans control strain; type: cell-based, Candida albicans; settings: Candida albicans; for IC50: ATCC10231, C. albicans ATCC 10231, mean and 95% confidence interval; for inhibition at 100 µM: ATCC10231, C. albicans ATCC 10231, 24 h
# Experimental: as §2
# [8] = test system: C. albicans; assay: In vitro susceptibility testing, C. albicans clinical isolate; type: cell-based; settings: Candida albicans; clinical isolate; mean and 95% confidence interval; read-out: IC50 C. albicans
# Source text: as §1, §2
# [9] = test system: C. krusei; assay: In vitro susceptibility testing, C. krusei clinical isolate; type: cell-based; settings: Pichia kudriavzevii; clinical isolate; read-out: IC50 C. krusei
# Source text: as §1, §2
# [10] = test system: C. glabrata; assay: In vitro susceptibility testing, C. glabrata clinical isolate; type: cell-based; settings: Nakaseomyces glabratus; clinical isolate; read-out: IC50 C. glabrata
# Source text: as §1, §2
# [11] = test system: C. albicans ATCC 10231; assay: Effect on yeast-to-hyphae transition; type: cell-based, Candida albicans; settings: compound at IC50 value, 2 h
# Source text: Blastospore and hyphae forms were observed under a light microscope.
# [12] = test system: C. neoformans; assay: In vitro susceptibility testing, C. neoformans clinical isolate; type: cell-based; settings: Cryptococcus neoformans; clinical isolate; read-out: IC50 C. neoformans
# Source text: as §1, §2
# [13] = Cytotoxicity test on Vero cells (WST8/CCK-8 cell viability); type: cell-based, African green monkey; settings: African green monkey, Vero cells (ATCC CCL-81), Vero cells, mean and 95% confidence interval
# Experimental: (§3) African green monkey kidney cells (Vero ATCC CCL-81) were cultured in Eagle’s Minimal Essential Medium (MEM) (Sigma-Aldrich), supplemented with 10% fetal bovine serum (FBS) (Carlo Erba Reagents, Milan, Italy), 100 U/mL penicillin, and 100 µg/mL streptomycin at 37 °C with 5% CO2. For experiments, cells were seeded into 96-well plates at 10^4 cells/well, and incubated at 37 °C for 24 h. Following washes with PBS, cell monolayer was incubated with 100 µL of serially 2-fold dilution of the compound in the range 200–6.25 µM. Both untreated cells and cells incubated with medium containing solvent dilutions were included in each experiment as controls.
# (§4) The cell viability was assessed by a WST8-based assay according to the manufacturer’s instructions (CCK-8, Cell Counting Kit-8, Dojindo Molecular Technologies, Rockville, MD, USA). After 72 h of incubation, culture medium was removed from each well, the monolayer was washed with PBS, and 100 µL of fresh medium containing 10 µL of CCK-8 solution were added. Following a 2 h at 37 °C, the absorbance was measured at 450/630 nm; data were calculated as the percentage of the cell viability relative to the untreated controls.
# [14] = test system: C. albicans ATCC 10231; assay: Disruption of preformed mature biofilm (biofilm metabolic activity); type: cell-based, Candida albicans; settings: compounds added to preformed mature biofilm; statistically significant
# [15] = test system: C. tropicalis; assay: In vitro susceptibility testing, C. tropicalis clinical isolate; type: cell-based; settings: Candida tropicalis; clinical isolate; read-out: IC50 C. tropicalis
# Source text: as §1, §2
# [16] = test system: Vero cells (ATCC CCL-81); assay: Cytotoxicity test on Vero cells (WST8/CCK-8 cell viability); type: cell-based, African green monkey; settings: 72 h, up to the highest concentration of 200 μM
# Experimental: as §3, §4
Structure (SMILES),IC50 [1],IC50 [2],invasion of Spider medium (filamentation) [3],IC50 [4],IC50 [5],IC50 [6],IC50 ([7]; read-out: IC50) [µM],IC50 ([7]; read-out: IC50 [μg/mL]) [µg/mL],inhibition at 100 µM [7] [%],IC50 [8],IC50 [9],IC50 [10],cell morphology after treatment [11],IC50 [12],CC50 at 72 h ([13]; read-out: CC50) [µM],CC50 at 72 h ([13]; read-out: CC50 [μg/mL]) [µg/mL],reduction of metabolism of sessile cells in mature biofilm [14] [%],IC50 [15],"toxicity on Vero cells, in words [16]"
"O=C(/C=C/c1cccc(F)c1)c1cc(F)ccc1O [Compound 7, (E)-1-(5-Fluoro-2-hydroxyphenyl)-3-(3-fluorophenyl)prop-2-en-1-one]",31.7 µM and 8.2 µg/mL,100 µM and 26 µg/mL,unable to penetrate the medium,37 µM and 9.6 µg/mL,80 µM and 20.8 µg/mL,100 µM and 26 µg/mL,53,13.8,69 ± 12.4,32.1 µM and 8.4 µg/mL,100 µM and 26 µg/mL,100 µM and 26 µg/mL,"mainly formed blastospores, some rare budding cells but no hyphae",15.6 µM and 4.1 µg/mL,182,47.3,< 25,> 200 µM and > 52 µg/mL,–
C#CCOc1ccc(C(=O)/C=C/c2ccc([N+](=O)[O-])cc2)c(OC)c1 [Compound 14],48.8 µM and 14.8 µg/mL,100 µM and 33.7 µg/mL,–,100 µM and 33.7 µg/mL,100 µM and 33.7 µg/mL,33.7 µM and 11.4 µg/mL,39.2,11.5,63.6 ± 6.8,31.4 µM and 10.6 µg/mL,200 µM and 67.5 µg/mL,200 µM and 67.5 µg/mL,–,28.4 µM and 9.6 µg/mL,> 200,> 58.6,–,200 µM and 67.5 µg/mL,did not display any toxicity
"O=C(/C=C/c1cc(F)cc(F)c1)c1cc(Cl)ccc1O [Compound 5, (E)-1-(5-Chloro-2-hydroxyphenyl)-3-(3,5-difluorophenyl)prop-2-en-1-one]",14.1 µg/mL and 47.9 µM,58.9 µg/mL and 200 µM,unable to penetrate the medium,29.5 µg/mL and 100 µM,22.7 µg/mL and 76.9 µM,29.5 µg/mL and 100 µM,51.3,15.1,62 ± 1.5,29.5 µg/mL and 100 µM,> 58.9 µg/mL and > 200 µM,> 58.9 µg/mL and > 200 µM,–,5.3 µg/mL and 18 µM,> 200,> 58.9,< 25,> 58.9 µg/mL and > 200 µM,did not display any toxicity
